Experiments:
[1] = system: hepatic fibrosis in KM mice induced by bile duct ligation (BDL); assay: Hepatic fibrosis in KM mice induced by bile duct ligation (BDL); assay type: in vivo; conditions: 10 days, scale 0-6
Experimental: SPF grade KM mice, healthy, male, with a body weight of 20±2 g, were purchased from Henan Experimental Animal Center. (License No. SOCK (Yu) 2017-0001).
After KM mice were fed ad libitum for 3 days, they were randomly divided into multiple groups including a sham-operated control group, a model group, an AD control group, and different compound-administered groups, six mice per group. The sham operation group and the model group were administered with 0.5% Sodium CMC (Na CMC) via gavage, and the other administration groups were administered 0.5% CMC-Na suspension of the corresponding drug, and the administration lasted for 10 days. Mice should be strictly fasting with nothing but water 12 hours prior to surgery. The mice were anesthesia by intraperitoneally injecting with 0.5% sodium pentobarbital. After limb immobilization in a supine position, the anesthetized mice were prepared. The abdomen of the mice was shaved and then swabbed with iodine to sterilize the skin regions. After spreading of surgery cloth, the abdomen was opened along the abdominal wall in the midline. The duodenum was found along the stomach, then pull upwards to just separate from the common bile duct. Double-ligated with 4/0 silk thread and disconnected the common bile duct with a distance of 0.5 cm away from the hepatic hilum. Following the examination for no bleeding and bile leakage, the 3/0 silk thread continuous suture method was used to close the abdomen layer by layer. The wound was swabbed with iodine, and the mice rest in a 37° C. warm environment until the animals were fully awake. […] Drugs were administrated by gavage on an empty stomach in the morning every day, and were given daily for 10 days. The liver was quickly excised after blood collection. The collected blood was allowed to stand in an incubator 37° C. for 45 min, and then the upper serum was collected by centrifugation at 3500 rpm for 15 min at 4° C. The liver of the lower left lobe of the mice was fixed in 10 times volume of 4% paraformaldehyde fixative, and the fixative was changed after 24 h. Pathological sections were obtained after fixation. Each section was stained with hematoxylin-eosin stain (HE) and Sirius red to observe fibrosis levels and pathological change in the liver. […] Collagen deposition was measured with Sirius red staining, and positive expression was semi-quantitatively analyzed by Image-Pro Plus. […]

[2] = system: human renal proximal tubule epithelial cells HK-2; assay: In vitro cytotoxicity MTT assay on HK-2 cells; assay type: cell-based; conditions: 48 h, 30.00 μM equivalent dose, FIGS. 6A-6B
Experimental: HK-2 cells were cultured in a DMEM/F12 medium containing 10% (V/V) fetal bovine serum (FBS), 100 μg/mL streptomycin, and 100 IU/mL penicillin, followed by incubation at 37° C. in a humidified atmosphere with 5% CO2.
HK-2 cells in the logarithmic growth phase were digested with 0.25% (W/V) trypsin and 0.02% EDTA (W/V), diluted into 7.0×10^4 cell/mL cell suspension with DMEM/F12 medium containing 10% (V/V) FBS, and transferred into a 96-well plate for 200 μL per well. After incubation in the 37° C. incubator with 5% CO2 for 24 hours, the medium comprising different concentration of test compounds were added into the wells. Under these conditions, the maximum final drug concentration in the assay was 30.00 μM. The experiment was performed in triplicate. After further incubation for 48 hours, other steps were the same as Example 1.

[3] = system: silica-induced pulmonary fibrosis in KM mice; assay: Silica-induced pulmonary fibrosis in KM mice; assay type: in vivo; conditions: AD at equivalent dose (40 or 120 mg/kg) ig 21 days
Experimental: SPF grade KM mice, healthy, male, with a body weight of 20±2 g, were purchased from Henan Experimental Animal Center. (License No. SOCK (Yu) 2017-0001). Silica was heated at 250° C. for 1 hour to remove endotoxin. After autoclaving the heated silica was suspended in physiological saline to yield a final concentration of 75 mg/mL suspension, and stored at 4° C. for use. The suspension was shaken and sonicated for 30 minutes prior to injection.
After mice were fed ad libitum for 3 days, they were randomly divided into six groups including a sham-operated control group, a model group, different groups of the compounds of the disclosure, eight mice per group. The mice were anesthetized with intraperitoneal injection of 0.5% sodium pentobarbital (50 mg/kg). After the immobilization in a supine position, the anesthetized mice were prepared. The neck of the mice was shaved and then swabbed with iodine to sterilize the skin regions. An incision with a length of about 1 cm was made along the neck for separating bronchus. A silica suspension proportional (150 mg/kg) to the body weight, and 100 μL of air was immediately injected into the trachea through the cartilage space of mice. After the muscle was reset, the mice were quickly rotated for 2 minutes to evenly distribute the silica. […] Mice lung was collected, weighed and the pulmonary lesion was measured. […]

[4] = 15 mg/kg ig, model group mean score 4.25

## C=C1CC[C@@H]2[C@](C)(CO)[C@H](O)CC[C@@]2(C)[C@@H]1C/C=C1/C(=O)OC[C@H]1O [AD, andrographolide]
[1]; 15 mg/kg ig, model group mean score 4.8
  fibrosis pathological score for liver tissue section (mean): 2.83
[1]; 40 mg/kg ig, model group mean score 4.8
  fibrosis pathological score for liver tissue section (mean): 2.10
[2]
  inhibitory effect on proliferation of HK-2 cells compared with AD: lower inhibitory activity against the cell proliferation
[3]
  pulmonary fibrosis score: 3.8-4.9

## CC1=CCC2C(C)(CO)C(O)CCC2(C)C1C=CC1=CC(=Cc2ccc(F)cc2)OC1=O (centres unmarked) [ADC-5]
[2]
  inhibitory effect on proliferation of HK-2 cells compared with AD: higher inhibitory effect on proliferation of HK-2 cells than the parent compound AD

## CC1=CCC2C(C)(CO)C(O)CCC2(C)C1C=CC1=CC(=Cc2ccc(F)c(F)c2)OC1=O (centres unmarked) [ADC-6]
[2]
  inhibitory effect on proliferation of HK-2 cells compared with AD: higher inhibitory effect on proliferation of HK-2 cells than the parent compound AD

## COc1ccc(C=C2C=C(C=CC3C(C)=CCC4C(C)(CO)C(O)CCC34C)C(=O)O2)cc1 (centres unmarked) [ADC-11]
[2]
  inhibitory effect on proliferation of HK-2 cells compared with AD: higher inhibitory effect on proliferation of HK-2 cells than the parent compound AD

## CC1=CCC2C(C)(CO)C(O)CCC2(C)C1C=CC1=CC(=Cc2ccccc2O)OC1=O (centres unmarked) [ADC-12]
[2]
  inhibitory effect on proliferation of HK-2 cells compared with AD: higher inhibitory effect on proliferation of HK-2 cells than the parent compound AD

## CC12CCC3C(CCC(O)C3(C)CO)C1CC(C1=CC(=Cc3ccc(Br)cc3)OC1=O)O2 (centres unmarked) [ADY-2]
[2]
  inhibitory effect on proliferation of HK-2 cells compared with AD: higher inhibitory effect on proliferation of HK-2 cells than the parent compound AD

## CC12CCC3C(CCC(O)C3(C)CO)C1CC(C1=CC(=Cc3ccccc3)OC1=O)O2 (centres unmarked) [ADY-5]
[2]
  inhibitory effect on proliferation of HK-2 cells compared with AD: higher inhibitory effect on proliferation of HK-2 cells than the parent compound AD

## CC12CCC3C(CCC(O)C3(C)CO)C1CC(C1=CC(=Cc3ccc(F)c(F)c3)OC1=O)O2 (centres unmarked) [ADY-6]
[2]
  inhibitory effect on proliferation of HK-2 cells compared with AD: higher inhibitory effect on proliferation of HK-2 cells than the parent compound AD

## COc1cccc(C=C2C=C(C3CC4C5CCC(O)C(C)(CO)C5CCC4(C)O3)C(=O)O2)c1 (centres unmarked) [ADY-7]
[1]; [4]
  fibrosis pathological score for liver tissue section (mean): 0.4

## CC12CCC3C(CCC(O)C3(C)CO)C1CC(C1=CC(=Cc3ccc(O)cc3)OC1=O)O2 (centres unmarked) [ADY-8]
[2]
  inhibitory effect on proliferation of HK-2 cells compared with AD: higher inhibitory effect on proliferation of HK-2 cells than the parent compound AD

## COc1ccc(C=C2C=C(C3CC4C5CCC(O)C(C)(CO)C5CCC4(C)O3)C(=O)O2)cc1 (centres unmarked) [ADY-12]
[1]; [4]
  fibrosis pathological score for liver tissue section (mean): 1.4

— patent US11279695B2, “Andrographolide compound and method for treatment or prevention of fibrotic disease using the same” (Zhengzhou University, priority 2018, dated 2022)
